# Source: PubChem BioAssay (NCI)
#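 The concentration for 50% growth inhibition is given as GI50. TGI is the concentration that stops growth completely.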
# Key:
# Experiment in all cases: DTP human tumour cell line panel, 384-well format
# HCT-116 colon = tested on: HCT-116 colon
# HS 578T breast = tested on: HS 578T breast
# COLO 205 colon = tested on: COLO 205 colon
# NCI-H522 lung = tested on: NCI-H522 lung
# SF-539 CNS = tested on: SF-539 CNS
# SNB-19 CNS = tested on: SNB-19 CNS
# KM12 colon = tested on: KM12 colon
# OVCAR-8 ovarian = tested on: OVCAR-8 ovarian
# MOLT-4 leukemia = tested on: MOLT-4 leukemia
# SN12C renal = tested on: SN12C renal
# CAKI-1 renal = tested on: CAKI-1 renal
# HOP-92 NSCLC = tested on: HOP-92 NSCLC
# U251 glioblastoma = tested on: U251 glioblastoma
# MDA-MB-468 breast = tested on: MDA-MB-468 breast
# T-47D breast = tested on: T-47D breast
# OVCAR-5 ovarian = tested on: OVCAR-5 ovarian
# IGROV1 ovarian = tested on: IGROV1 ovarian
# BT-549 breast = tested on: BT-549 breast
# SW-620 colon = tested on: SW-620 colon
# NCI-H226 lung = tested on: NCI-H226 lung
# NCI-H23 lung = tested on: NCI-H23 lung
# HOP-62 NSCLC = tested on: HOP-62 NSCLC
# NCI-H322M lung = tested on: NCI-H322M lung
# 786-0 renal = tested on: 786-0 renal
# UACC-257 melanoma = tested on: UACC-257 melanoma
# TK-10 renal = tested on: TK-10 renal
# NCI-H460 NSCLC = tested on: NCI-H460 NSCLC
# MDA-MB-435 melanoma = tested on: MDA-MB-435 melanoma
# RPMI-8226 leukemia = tested on: RPMI-8226 leukemia
# HT29 colon = tested on: HT29 colon
# PC-3 prostate = tested on: PC-3 prostate
# UO-31 renal = tested on: UO-31 renal
# A498 renal = tested on: A498 renal
# EKVX NSCLC = tested on: EKVX NSCLC
# SK-OV-3 ovarian = tested on: SK-OV-3 ovarian
# MDA-MB-231 breast = tested on: MDA-MB-231 breast
# OVCAR-4 ovarian = tested on: OVCAR-4 ovarian
# MALME-3M melanoma = tested on: MALME-3M melanoma
# HCC-2998 colon = tested on: HCC-2998 colon
# LOX IMVI melanoma = tested on: LOX IMVI melanoma
# DU-145 prostate = tested on: DU-145 prostate
# NCI/ADR-RES ovarian = tested on: NCI/ADR-RES ovarian
# SK-MEL-28 melanoma = tested on: SK-MEL-28 melanoma
# MCF7 breast = tested on: MCF7 breast
# ACHN renal = tested on: ACHN renal
# A549 NSCLC = tested on: A549 NSCLC
# SR leukemia = tested on: SR leukemia
# SF-295 CNS = tested on: SF-295 CNS
# HCT-15 colon = tested on: HCT-15 colon
# RXF 393 renal = tested on: RXF 393 renal
structure (smiles),measurement,setting,value
CNC(=O)c1ccccc1Sc1ccc2c(/C=C/c3ccccn3)n[nH]c2c1,GI50,HCT-116 colon,4.39 µM
same,TGI,HCT-116 colon,> 100 µM
same,GI50,HS 578T breast,2.17 µM
same,TGI,HS 578T breast,35.7 µM
same,GI50,COLO 205 colon,2.52 µM
same,TGI,COLO 205 colon,> 100 µM
same,GI50,NCI-H522 lung,1.35 µM
same,TGI,NCI-H522 lung,13.8 µM
same,GI50,SF-539 CNS,1.01 µM
same,TGI,SF-539 CNS,7.16 µM
same,GI50,SNB-19 CNS,66 µM
same,TGI,SNB-19 CNS,> 100 µM
same,GI50,KM12 colon,1.11 µM
same,TGI,KM12 colon,> 100 µM
same,GI50,OVCAR-8 ovarian,14.3 µM
same,TGI,OVCAR-8 ovarian,42.5 µM
same,GI50,MOLT-4 leukemia,0.175 µM
same,TGI,MOLT-4 leukemia,0.328 µM
same,GI50,SN12C renal,4.88 µM
same,TGI,SN12C renal,79.7 µM
same,GI50,CAKI-1 renal,22 µM
same,TGI,CAKI-1 renal,> 100 µM
same,GI50,HOP-92 NSCLC,20.3 µM
same,TGI,HOP-92 NSCLC,> 100 µM
same,GI50,U251 glioblastoma,19.1 µM
same,TGI,U251 glioblastoma,> 100 µM
same,GI50,MDA-MB-468 breast,1.92 µM
same,TGI,MDA-MB-468 breast,5.88 µM
same,GI50,T-47D breast,2.57 µM
same,TGI,T-47D breast,16.1 µM
same,GI50,OVCAR-5 ovarian,> 100 µM
same,TGI,OVCAR-5 ovarian,> 100 µM
same,GI50,IGROV1 ovarian,36.1 µM
same,TGI,IGROV1 ovarian,> 100 µM
same,GI50,BT-549 breast,1.22 µM
same,TGI,BT-549 breast,6.94 µM
same,GI50,SW-620 colon,46.7 µM
same,TGI,SW-620 colon,> 100 µM
same,GI50,NCI-H226 lung,1.06 µM
same,TGI,NCI-H226 lung,7.68 µM
same,GI50,NCI-H23 lung,15.5 µM
same,TGI,NCI-H23 lung,> 100 µM
same,GI50,HOP-62 NSCLC,4.4 µM
same,TGI,HOP-62 NSCLC,> 100 µM
same,GI50,NCI-H322M lung,20.7 µM
same,TGI,NCI-H322M lung,73.7 µM
same,GI50,786-0 renal,42.1 µM
same,TGI,786-0 renal,> 100 µM
same,GI50,UACC-257 melanoma,26.7 µM
same,TGI,UACC-257 melanoma,92.2 µM
same,GI50,TK-10 renal,> 100 µM
same,TGI,TK-10 renal,> 100 µM
same,GI50,NCI-H460 NSCLC,2.59 µM
same,TGI,NCI-H460 NSCLC,45 µM
same,GI50,MDA-MB-435 melanoma,> 100 µM
same,TGI,MDA-MB-435 melanoma,> 100 µM
same,GI50,RPMI-8226 leukemia,3.77 µM
same,TGI,RPMI-8226 leukemia,13.9 µM
same,GI50,HT29 colon,46.5 µM
same,TGI,HT29 colon,> 100 µM
same,GI50,PC-3 prostate,20.2 µM
same,TGI,PC-3 prostate,> 100 µM
same,GI50,UO-31 renal,32.8 µM
same,TGI,UO-31 renal,> 100 µM
same,GI50,A498 renal,35.4 µM
same,TGI,A498 renal,> 100 µM
same,GI50,EKVX NSCLC,29.9 µM
same,TGI,EKVX NSCLC,> 100 µM
same,GI50,SK-OV-3 ovarian,65.7 µM
same,TGI,SK-OV-3 ovarian,> 100 µM
same,GI50,MDA-MB-231 breast,21.7 µM
same,TGI,MDA-MB-231 breast,> 100 µM
same,GI50,OVCAR-4 ovarian,19.3 µM
same,TGI,OVCAR-4 ovarian,> 100 µM
same,GI50,MALME-3M melanoma,13.6 µM
same,TGI,MALME-3M melanoma,85.9 µM
same,GI50,HCC-2998 colon,> 100 µM
same,TGI,HCC-2998 colon,> 100 µM
same,GI50,LOX IMVI melanoma,5.04 µM
same,TGI,LOX IMVI melanoma,41.7 µM
same,GI50,DU-145 prostate,30.1 µM
same,TGI,DU-145 prostate,> 100 µM
same,GI50,NCI/ADR-RES ovarian,5.09 µM
same,TGI,NCI/ADR-RES ovarian,18.4 µM
same,GI50,SK-MEL-28 melanoma,22.4 µM
same,TGI,SK-MEL-28 melanoma,> 100 µM
same,GI50,MCF7 breast,16.2 µM
same,TGI,MCF7 breast,> 100 µM
same,GI50,ACHN renal,13.8 µM
same,TGI,ACHN renal,> 100 µM
same,GI50,A549 NSCLC,7.86 µM
same,TGI,A549 NSCLC,> 100 µM
same,GI50,SR leukemia,0.356 µM
same,TGI,SR leukemia,0.539 µM
same,GI50,SF-295 CNS,3.59 µM
same,TGI,SF-295 CNS,69 µM
same,GI50,HCT-15 colon,4.68 µM
same,TGI,HCT-15 colon,> 100 µM
same,GI50,RXF 393 renal,4.61 µM
same,TGI,RXF 393 renal,31.1 µM
